Reference: the NIST ThermoML archive (doi:10.1016/j.jct.2014.06.030)

Experiment: xn = mol fraction of the nth substance listed
Conditions: 100 kPa, Liquid; for speed of sound: Sing-around technique in a fixed-path interferometer; for mass density: Vibrating tube method

Cc1ccccc1Cl [2-chlorotoluene] + C1CCCCC1
Conditions | mass density, 298.15 K [kg/m3] | mass density, 303.15 K [kg/m3] | mass density, 308.15 K [kg/m3] | speed of sound, 298.15 K [m/s] | speed of sound, 303.15 K [m/s] | speed of sound, 308.15 K [m/s]
x1 = 0.1098 | 808.15 | 803.38 | 798.58 | 1251.3 | 1227.6 | 1204.7
x1 = 0.1437 | 818.67 | 813.9 | 809.09 | 1251 | 1227.7 | 1205
x1 = 0.1987 | 835.72 | 830.93 | 826.11 | 1251.1 | 1228.2 | 1205.9
x1 = 0.2356 | 847.14 | 842.33 | 837.5 | 1251.5 | 1228.8 | 1206.7
x1 = 0.2874 | 863.12 | 858.3 | 853.47 | 1252.4 | 1230 | 1208.1
x1 = 0.3256 | 874.88 | 870.06 | 865.22 | 1253.4 | 1231.2 | 1209.5
x1 = 0.3876 | 893.92 | 889.08 | 884.22 | 1255.3 | 1233.6 | 1212.2
x1 = 0.4135 | 901.85 | 897.01 | 892.15 | 1256.2 | 1234.8 | 1213.4
x1 = 0.4834 | 923.2 | 918.34 | 913.47 | 1259.3 | 1238.4 | 1217.4
x1 = 0.5243 | 935.64 | 930.78 | 925.9 | 1261.4 | 1240.7 | 1220
x1 = 0.5763 | 951.42 | 946.54 | 941.65 | 1264.3 | 1244 | 1223.6
x1 = 0.6143 | 962.9 | 958.02 | 953.13 | 1266.5 | 1246.6 | 1226.5
x1 = 0.6654 | 978.29 | 973.4 | 968.5 | 1269.9 | 1250.3 | 1230.7
x1 = 0.7154 | 993.29 | 988.4 | 983.48 | 1273.4 | 1254.3 | 1235
x1 = 0.7654 | 1008.2 | 1003.3 | 998.42 | 1277.2 | 1258.4 | 1239.6
x1 = 0.8165 | 1023.4 | 1018.5 | 1013.6 | 1281.3 | 1262.9 | 1244.4
x1 = 0.8324 | 1028.1 | 1023.2 | 1018.3 | 1282.6 | 1264.3 | 1246
x1 = 0.8965 | 1047.1 | 1042.2 | 1037.3 | 1288.4 | 1270.3 | 1252.3

C1CCOCC1 [tetrahydropyran] + C1CCCCC1
Conditions | mass density, 298.15 K [kg/m3] | mass density, 303.15 K [kg/m3] | mass density, 308.15 K [kg/m3] | speed of sound, 298.15 K [m/s] | speed of sound, 303.15 K [m/s] | speed of sound, 308.15 K [m/s]
x1 = 0.0987 | 782.47 | 777.69 | 772.88 | 1251.6 | 1226.7 | 1202.3
x1 = 0.1432 | 786.46 | 781.65 | 776.83 | 1250.7 | 1225.6 | 1201
x1 = 0.1876 | 790.51 | 785.69 | 780.84 | 1249.8 | 1224.6 | 1199.8
x1 = 0.2378 | 795.2 | 790.36 | 785.49 | 1249 | 1223.6 | 1198.7
x1 = 0.2791 | 799.14 | 794.28 | 789.39 | 1248.5 | 1223 | 1197.8
x1 = 0.3165 | 802.76 | 797.88 | 792.98 | 1248.1 | 1222.6 | 1197.3
x1 = 0.3782 | 808.86 | 803.96 | 799.03 | 1247.9 | 1222.4 | 1197
x1 = 0.4237 | 813.45 | 808.53 | 803.59 | 1248 | 1222.5 | 1197.1
x1 = 0.4521 | 816.36 | 811.43 | 806.48 | 1248.3 | 1222.7 | 1197.4
x1 = 0.4982 | 821.15 | 816.2 | 811.24 | 1248.8 | 1223.3 | 1198.1
x1 = 0.5318 | 824.7 | 819.74 | 814.76 | 1249.5 | 1224 | 1198.9
x1 = 0.5643 | 828.18 | 823.2 | 818.21 | 1250.2 | 1224.9 | 1199.9
x1 = 0.5918 | 831.15 | 826.17 | 821.16 | 1251 | 1225.7 | 1200.8
x1 = 0.6236 | 834.62 | 829.63 | 824.61 | 1252 | 1226.8 | 1202.1
x1 = 0.6982 | 842.94 | 837.92 | 832.88 | 1254.8 | 1230 | 1205.6
x1 = 0.7341 | 847.03 | 841.99 | 836.93 | 1256.4 | 1231.7 | 1207.7
x1 = 0.7949 | 854.07 | 849.02 | 843.94 | 1259.3 | 1235 | 1211.4
x1 = 0.8632 | 862.2 | 857.11 | 852 | 1262.9 | 1238.9 | 1215.8
